The assay has as its system L1210 leukemia ip in BDF1 mice, survival T/C. The experiment in a line: NCI In Vivo Anticancer Drug Screen. Data for tumor model L1210 Leukemia (intraperitoneal) in B6D2F1 (BDF1) mice. The conditions noted are these: endpoint: mean survival time, higher = longer survival. The method, boiled down: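 Transplantable tumor model; survival measured in treated vs vehicle control mice. Value = treated/control.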

[1] abbreviates: dose: 100.0 mg/kg/injection, schedule: Q04DX003 (ip), vehicle: saline with Tween-80.
Setting [2] is: dose: 200.0 mg/kg/injection, schedule: Q04DX003 (ip), vehicle: saline with Tween-80.
Where [3] appears, read: dose: 400.0 mg/kg/injection, schedule: Q04DX003 (ip), vehicle: saline with Tween-80.
[4] abbreviates: dose: 100.0 mg/kg/injection, schedule: Q04DX003 (ip), vehicle: Klucel (hydroxypropylcellulose) (HPC).
Where [5] appears, read: dose: 200.0 mg/kg/injection, schedule: Q04DX003 (ip), vehicle: Klucel (hydroxypropylcellulose) (HPC).
[6] abbreviates: dose: 400.0 mg/kg/injection, schedule: Q04DX003 (ip), vehicle: Klucel (hydroxypropylcellulose) (HPC).
Where [7] appears, read: dose: 100.0 mg/kg/injection, schedule: Q01DX009 (ip), vehicle: saline with Tween-80.
[8] abbreviates: dose: 100.0 mg/kg/injection, schedule: Q04DX002 (ip), vehicle: saline with Tween-80.
The mark [9] stands for this setting: dose: 200.0 mg/kg/injection, schedule: Q01DX009 (ip), vehicle: saline with Tween-80.
Setting [10] is: dose: 400.0 mg/kg/injection, schedule: Q01DX009 (ip), vehicle: saline with Tween-80.
Where [11] appears, read: dose: 100.0 mg/kg/injection, schedule: Q01DX001 (ip), vehicle: saline.
[12] abbreviates: dose: 200.0 mg/kg/injection, schedule: Q01DX001 (ip), vehicle: saline.
Where [13] appears, read: dose: 400.0 mg/kg/injection, schedule: Q01DX001 (ip), vehicle: saline.
Where [14] appears, read: dose: 100.0 mg/kg/injection, schedule: Q01DX001 (ip), vehicle: carboxymethylcellulose (CMC).
Where [15] appears, read: dose: 100.0 mg/kg/injection, schedule: Q04DX002 (ip), vehicle: Klucel (hydroxypropylcellulose) (HPC).
The mark [16] stands for this setting: dose: 200.0 mg/kg/injection, schedule: Q04DX002 (ip), vehicle: Klucel (hydroxypropylcellulose) (HPC).
The mark [17] stands for this setting: dose: 400.0 mg/kg/injection, schedule: Q04DX002 (ip), vehicle: Klucel (hydroxypropylcellulose) (HPC).

Values joined by “and” are separate entries in the source; they are usually repeats but may differ in a detail not shown here. Equal entries are not always repeated. Inconclusive results and toxic doses are left out.

For the compound `CC(=N)N`, the T/C is, setting by setting: (dose: 100.0 mg/kg/injection, schedule: Q04DX003 (ip), vehicle: saline) 114 % of control; (dose: 200.0 mg/kg/injection, schedule: Q04DX003 (ip), vehicle: saline) 90 % of control; (dose: 400.0 mg/kg/injection, schedule: Q04DX003 (ip), vehicle: saline) 111 % of control.

Turning to `CCOC(=O)CCCN(C(=O)c1ccccc1)c1scc(-c2ccccc2)c1C(=O)OCC`, the T/C is 92 % of control (dose: 50.0 mg/kg/injection, schedule: Q04DX003 (ip), vehicle: saline with Tween-80); 95 % of control under setting [1]; 94 % of control under setting [2]; 103 % of control under setting [3].

For `O=C(c1ccccc1)C(CBr)C(Br)c1ccccc1` (configuration not stated), the T/C was 90 % of control (dose: 100.0 mg/kg/injection, schedule: Q01DX009 (ip), vehicle: Klucel (hydroxypropylcellulose) (HPC)); 98 % of control under setting [4]; 101 % of control (dose: 200.0 mg/kg/injection, schedule: Q01DX009 (ip), vehicle: Klucel (hydroxypropylcellulose) (HPC)); 95 % of control under setting [5]; 93 % of control (dose: 400.0 mg/kg/injection, schedule: Q01DX009 (ip), vehicle: Klucel (hydroxypropylcellulose) (HPC)); 88 % of control under setting [6].

Take `O=C(O)[C@@H]1C[C@H]1c1ccccc1`: the T/C is 100 % of control (dose: 25.0 mg/kg/injection, schedule: Q04DX002 (ip), vehicle: saline + alcohol); 102 % of control (dose: 50.0 mg/kg/injection, schedule: Q04DX002 (ip), vehicle: saline + alcohol); 89 % of control under setting [7]; 109 % of control (dose: 100.0 mg/kg/injection, schedule: Q04DX002 (ip), vehicle: saline + alcohol); 114 % of control under setting [8]; 87 % of control under setting [9]. Moreover, the T/C under setting [10] was 92 % of control.

Take `Cc1cc(=O)c2cc(Cl)cc(Br)c2[nH]1`: the T/C under setting [11] is 94 % of control, the T/C under setting [12] is 96 % of control and the T/C under setting [13] is 103 % of control.

As to `C=CC1C(OCC)(OCC)CS1(=O)=O` (configuration not stated), the T/C by setting is: under setting [11], 93 % of control; (dose: 100.0 mg/kg/injection, schedule: Q01DX009 (ip), vehicle: acetone) 106 % of control; under setting [12], 98 % of control; (dose: 200.0 mg/kg/injection, schedule: Q01DX009 (ip), vehicle: acetone) 100 % of control; under setting [13], 95 % of control; (dose: 400.0 mg/kg/injection, schedule: Q01DX009 (ip), vehicle: acetone) 106 % of control.

As for `O=c1[nH]cnc2c(Cl)c(C(Cl)(Cl)Cl)nn12` (tested in a mixture with another compound), the T/C under setting [7] is 97 % of control; the T/C under setting [1] was 104 % of control; the T/C under setting [9] was 92 % of control; the T/C under setting [2] was 98 % of control; the T/C under setting [10] is 97 % of control; the T/C under setting [3] is 97 % of control.

In the case of `CC1CC[N+]2(CC(=O)c3ccc(Br)cc3)CCCC12` (configuration not stated), the T/C runs as follows: (dose: 12.5 mg/kg/injection, schedule: Q01DX001 (ip), vehicle: saline) 101 % of control; (dose: 25.0 mg/kg/injection, schedule: Q01DX001 (ip), vehicle: saline) 104 % of control; (dose: 50.0 mg/kg/injection, schedule: Q01DX001 (ip), vehicle: saline) 98 % of control.

Consider `O=C(O)C1C(c2ccccc2)=C(c2ccccc2)C(c2ccccc2)=C(c2ccccc2)C1C(=O)O` (configuration not stated), for which the T/C is 89 % of control (dose: 50.0 mg/kg/injection, schedule: Q01DX001 (ip), vehicle: carboxymethylcellulose (CMC)) and 92 % of control under setting [14].

Take `CC(=O)/C(N=O)=C(/C)O`: the T/C is 111 % of control (dose: 50.0 mg/kg/injection, schedule: Q01DX009 (ip), vehicle: saline); 105 % of control (dose: 100.0 mg/kg/injection, schedule: Q01DX009 (ip), vehicle: saline); 91 % of control under setting [4]; 104 % of control (dose: 200.0 mg/kg/injection, schedule: Q01DX009 (ip), vehicle: saline); 93 % of control under setting [5]; 92 % of control (dose: 400.0 mg/kg/injection, schedule: Q01DX001 (ip), vehicle: saline with Tween-80). For the same compound, the T/C (dose: 400.0 mg/kg/injection, schedule: Q01DX009 (ip), vehicle: saline) is 111 % of control and the T/C under setting [6] is 87 % of control.

`CCCCCC[Si](Cl)(CCCCCC)CCCCCC`: the T/C was 87 % of control under setting [11] and 98 % of control under setting [12].

For `N=C(N=C(N)N)N1CCOCC1`, the T/C under setting [7] was 101 % of control; the T/C under setting [1] was 105 % of control; the T/C under setting [9] was 98 % of control; the T/C under setting [2] is 112 % of control; the T/C under setting [10] is 103 % of control; the T/C under setting [3] is 104 % of control.

`NC(=S)Nc1cccc(O)c1`: the T/C by setting is: (dose: 100.0 mg/kg/injection, schedule: Q01DX009 (ip), vehicle: gum acacia) 96 % of control; (dose: 100.0 mg/kg/injection, schedule: Q04DX003 (ip), vehicle: gum acacia) 92 % of control; (dose: 200.0 mg/kg/injection, schedule: Q01DX009 (ip), vehicle: gum acacia) 87 % of control; (dose: 200.0 mg/kg/injection, schedule: Q04DX003 (ip), vehicle: gum acacia) 92 % of control; (dose: 400.0 mg/kg/injection, schedule: Q01DX009 (ip), vehicle: gum acacia) 87 % of control; (dose: 400.0 mg/kg/injection, schedule: Q04DX003 (ip), vehicle: gum acacia) 92 % of control.

For `COc1ccc(C)cc1NC(=O)NNC(=O)c1ccc(Cl)cc1`, the T/C (dose: 50.0 mg/kg/injection, schedule: Q01DX009 (ip), vehicle: saline with Tween-80) was 98 % of control; the T/C under setting [7] was 98 % of control; the T/C under setting [9] was 98 % of control.

In the case of `COc1cc(C(=O)N2CCCCCCC2)cc(OC)c1OC`, the T/C runs as follows: under setting [4], 98 % of control; under setting [5], 102 % of control.

For the compound `CCNc1nc(Cl)nc(C(Cl)(Cl)Cl)c1Cl` (tested in a mixture with another compound), the T/C runs as follows: under setting [15], 104 % of control; under setting [16], 96 % of control; under setting [17], 100 % of control.

Turning to `CSc1ccc(OC(=O)Nc2ccc(Cl)cc2)cc1C`, the T/C reads like this: under setting [14], 89 % of control; (dose: 100.0 mg/kg/injection, schedule: Q01DX009 (ip), vehicle: carboxymethylcellulose (CMC)) 97 % of control and 100 % of control; under setting [15], 103 % of control; (dose: 100.0 mg/kg/injection, schedule: Q04DX002 (ip), vehicle: carboxymethylcellulose (CMC)) 106 % of control and 108 % of control; (dose: 200.0 mg/kg/injection, schedule: Q01DX001 (ip), vehicle: carboxymethylcellulose (CMC)) 102 % of control; (dose: 200.0 mg/kg/injection, schedule: Q01DX009 (ip), vehicle: carboxymethylcellulose (CMC)) 93 % of control and 97 % of control. Further, the T/C is 98 % of control under setting [16]; 94 % of control and 108 % of control (dose: 200.0 mg/kg/injection, schedule: Q04DX002 (ip), vehicle: carboxymethylcellulose (CMC)); 93 % of control (dose: 400.0 mg/kg/injection, schedule: Q01DX001 (ip), vehicle: carboxymethylcellulose (CMC)); 92 % of control under setting [17]; 95 % of control and 104 % of control (dose: 400.0 mg/kg/injection, schedule: Q04DX002 (ip), vehicle: carboxymethylcellulose (CMC)).

As for `CCO/C(C)=N/N(C)c1n[n+]([O-])ccc1C`, the T/C runs as follows: (dose: 100.0 mg/kg/injection, schedule: Q04DX002 (ip), vehicle: saline) 189 % of control; (dose: 200.0 mg/kg/injection, schedule: Q04DX002 (ip), vehicle: saline) 96 % of control; (dose: 400.0 mg/kg/injection, schedule: Q04DX002 (ip), vehicle: saline) 96 % of control.

In the case of `O=C1c2ccccc2C(=O)c2[nH]ncc21`, the T/C reads like this: under setting [8], 102 % of control; (dose: 200.0 mg/kg/injection, schedule: Q04DX002 (ip), vehicle: saline with Tween-80) 95 % of control; (dose: 400.0 mg/kg/injection, schedule: Q04DX002 (ip), vehicle: saline with Tween-80) 91 % of control.
